# Measured values as given in US7060709B2, “Method of treating hepatic fibrosis” (Wyeth, priority 2003, dated 2006).
# Tests used:
# [1] = stability of CCI-779 in parenteral cosolvent formulation; format: physicochemical; details: citric acid at a concentration of less than 0.01% w/v
# Text: In this embodiment, the stability of CCI-779 in parenterally acceptable alcoholic cosolvents is enhanced by addition of an antioxidant to the formulation. Acceptable antioxidants include, but are not limited to, citric acid, d,l-α-tocopherol, BHA, BHT, monothioglycerol, ascorbic acid, propyl gallate, and mixtures thereof. Generally, the parenteral formulations useful in this embodiment of the invention will contain an antioxidant component(s) in a concentration ranging from 0.001% to 1% w/v, or 0.01% to 0.5% w/v, of the cosolvent concentrate, although lower or higher concentrations may be desired. Of the antioxidants, d,l-α-tocopherol is particularly desirable and is used at a concentration of 0.01 to 0.1% w/v with a preferred concentration of 0.075% w/v of the cosolvent concentrate.
# Examples of such chelating agents include, e.g., citric acid, acetic acid, and ascorbic acid (which may function as both a classic antioxidant and a chelating agent in the present formulations). Other chelating agents include such materials as are capable of binding metal ions in solution, such as ethylene diamine tetra acetic acid (EDTA), its salts, or amino acids such as glycine are capable of enhancing the stability of CCI-779. […] Optimal concentrations for the selected antioxidant(s) can be readily determined by one of skill in the art, based upon the information provided herein.
# [2] = tested on: histologically diverse tumor cells; details: cited from earlier work
# human tumor xenografts = details: nude mice, cited from earlier work
# orthotopic glioma = details: nude mice; cited from earlier work
# [3] = tested on: human glioblastoma cell line; details: human glioblastoma cell line in vitro; cited from earlier work
smiles,measurement,setting,value
"CO[C@H]1C[C@@H]2CC[C@@H](C)[C@@](O)(O2)C(=O)C(=O)N2CCCC[C@H]2C(=O)O[C@H]([C@H](C)C[C@@H]2CC[C@@H](OC(=O)C(C)(CO)CO)[C@H](OC)C2)CC(=O)[C@H](C)/C=C(\C)[C@@H](O)[C@@H](OC)C(=O)[C@H](C)C[C@H](C)/C=C/C=C/C=C/1C [CCI-779, Rapamycin 42-ester with 3-hydroxy-2-(hydroxymethyl)-2-methylpropionic acid]",stability of CCI-779,[1],enhanced the stability
same,cell cycle effect,[2]; in vitro tumor cells,arrested cells in the G1 phase
same,growth of tumor cells,"[2]; in vitro, CNS cancer, leukemia (T-cell), breast cancer, prostate cancer and melanoma lines among the most sensitive",inhibit the growth
same,growth of several human pancreatic tumors and one of two breast cancer lines,human tumor xenografts; in vivo,inhibited
same,activity against human tumor xenografts of diverse histological types,human tumor xenografts; gliomas particularly sensitive,has activity
same,activity in orthotopic glioma model,orthotopic glioma,active
same,growth factor (platelet-derived)-induced stimulation,[3],markedly suppressed
